From US12448389B2, “BRM targeting compounds and associated methods of use” (Prelude Therapeutics Incorporated, priority 2020, dated 2025)

Tests used:
SMARCA2-HiBiT = molecular target: T1, SMARCA2-HiBiT (Homo sapiens, UniProt P51531); experiment: SMARCA2 HiBiT degradation assay in HeLa cells; type: cell-based; settings: 18 hours incubation; for DC50: read-out: HeLa_HiBit-SM2 DC50; for Dmax: HeLa, read-out: HeLa-HiBit-SM2 Dmax (%)
T1 construct: SMARCA2-HiBiT knock-in Hela monoclonal cell (CS302366); host or cells: HeLa monoclonal knock-in line (CRISPR HiBiT knock-in at the endogenous locus, heterozygous)
Method in brief: (§1)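 HeLa monoclonal lines with heterozygous HiBiT knock-in were seeded at 2500 cells/well in EMEM with 10% FBS and treated with compound for 18 h at 37 °C. Remaining tagged protein was measured by Nano-Glo HiBiT lytic luminescence after 30–60 min at RT, and values came from curve fitting.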

SMARCA4-HiBiT = molecular target: T2, SMARCA4-HiBiT (Homo sapiens, UniProt P51532); experiment: SMARCA4 HiBiT degradation assay in HeLa cells; type: cell-based; settings: 18 hours incubation; for DC50: read-out: HeLa-HiBit-SM4 DC50; for Dmax: HeLa, read-out: HeLa-HiBit-SM4 Dmax (%)
T2 construct: SMARCA4-HiBiT knock-in Hela monoclonal cell (CS3023226); host or cells: HeLa monoclonal knock-in line (CRISPR HiBiT knock-in at the endogenous locus, heterozygous)
Method in brief: as §1

T2 sequence (P51532 whole entry): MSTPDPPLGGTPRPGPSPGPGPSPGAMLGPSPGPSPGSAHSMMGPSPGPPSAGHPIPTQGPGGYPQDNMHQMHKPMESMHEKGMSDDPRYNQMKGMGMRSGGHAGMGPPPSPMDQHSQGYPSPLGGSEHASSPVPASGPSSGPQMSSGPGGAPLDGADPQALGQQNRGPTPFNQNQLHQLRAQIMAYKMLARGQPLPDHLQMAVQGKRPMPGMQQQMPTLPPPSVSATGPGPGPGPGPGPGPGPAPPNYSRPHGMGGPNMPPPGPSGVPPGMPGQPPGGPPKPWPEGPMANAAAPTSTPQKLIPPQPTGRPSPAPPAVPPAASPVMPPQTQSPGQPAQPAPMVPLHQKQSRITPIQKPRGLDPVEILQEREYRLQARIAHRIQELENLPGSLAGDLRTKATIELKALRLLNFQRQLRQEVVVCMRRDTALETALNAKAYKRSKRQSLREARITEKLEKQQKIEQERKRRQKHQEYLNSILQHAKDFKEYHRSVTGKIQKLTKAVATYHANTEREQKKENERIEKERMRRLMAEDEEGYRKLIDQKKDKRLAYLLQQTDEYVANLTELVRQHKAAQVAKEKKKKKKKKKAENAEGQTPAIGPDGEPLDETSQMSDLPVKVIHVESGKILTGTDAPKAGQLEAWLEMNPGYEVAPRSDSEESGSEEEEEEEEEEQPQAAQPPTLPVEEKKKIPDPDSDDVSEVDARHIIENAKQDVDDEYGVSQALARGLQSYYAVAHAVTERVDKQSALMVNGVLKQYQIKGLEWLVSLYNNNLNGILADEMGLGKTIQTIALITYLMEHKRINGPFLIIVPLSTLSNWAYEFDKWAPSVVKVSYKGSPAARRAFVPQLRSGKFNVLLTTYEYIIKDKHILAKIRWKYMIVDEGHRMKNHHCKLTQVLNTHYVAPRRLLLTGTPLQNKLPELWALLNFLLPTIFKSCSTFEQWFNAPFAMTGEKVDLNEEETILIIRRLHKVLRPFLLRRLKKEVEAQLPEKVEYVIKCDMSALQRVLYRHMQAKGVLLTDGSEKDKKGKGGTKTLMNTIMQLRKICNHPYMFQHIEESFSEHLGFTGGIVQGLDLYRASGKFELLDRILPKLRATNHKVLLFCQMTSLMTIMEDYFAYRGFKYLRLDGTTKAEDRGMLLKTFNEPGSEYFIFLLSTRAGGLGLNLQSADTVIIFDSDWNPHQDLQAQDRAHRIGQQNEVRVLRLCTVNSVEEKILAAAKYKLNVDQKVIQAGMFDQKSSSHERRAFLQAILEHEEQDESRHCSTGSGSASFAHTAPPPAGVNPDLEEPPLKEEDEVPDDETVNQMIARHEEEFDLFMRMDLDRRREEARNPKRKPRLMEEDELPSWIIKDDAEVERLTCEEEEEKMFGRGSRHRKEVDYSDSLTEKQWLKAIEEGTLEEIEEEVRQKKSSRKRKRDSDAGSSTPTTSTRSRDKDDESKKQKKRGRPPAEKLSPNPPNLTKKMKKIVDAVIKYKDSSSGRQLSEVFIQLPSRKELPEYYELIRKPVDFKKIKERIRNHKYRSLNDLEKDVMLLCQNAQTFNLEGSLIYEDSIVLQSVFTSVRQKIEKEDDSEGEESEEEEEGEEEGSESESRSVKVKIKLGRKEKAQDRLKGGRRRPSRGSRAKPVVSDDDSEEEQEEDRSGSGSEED
T1 sequence (P51531 whole entry): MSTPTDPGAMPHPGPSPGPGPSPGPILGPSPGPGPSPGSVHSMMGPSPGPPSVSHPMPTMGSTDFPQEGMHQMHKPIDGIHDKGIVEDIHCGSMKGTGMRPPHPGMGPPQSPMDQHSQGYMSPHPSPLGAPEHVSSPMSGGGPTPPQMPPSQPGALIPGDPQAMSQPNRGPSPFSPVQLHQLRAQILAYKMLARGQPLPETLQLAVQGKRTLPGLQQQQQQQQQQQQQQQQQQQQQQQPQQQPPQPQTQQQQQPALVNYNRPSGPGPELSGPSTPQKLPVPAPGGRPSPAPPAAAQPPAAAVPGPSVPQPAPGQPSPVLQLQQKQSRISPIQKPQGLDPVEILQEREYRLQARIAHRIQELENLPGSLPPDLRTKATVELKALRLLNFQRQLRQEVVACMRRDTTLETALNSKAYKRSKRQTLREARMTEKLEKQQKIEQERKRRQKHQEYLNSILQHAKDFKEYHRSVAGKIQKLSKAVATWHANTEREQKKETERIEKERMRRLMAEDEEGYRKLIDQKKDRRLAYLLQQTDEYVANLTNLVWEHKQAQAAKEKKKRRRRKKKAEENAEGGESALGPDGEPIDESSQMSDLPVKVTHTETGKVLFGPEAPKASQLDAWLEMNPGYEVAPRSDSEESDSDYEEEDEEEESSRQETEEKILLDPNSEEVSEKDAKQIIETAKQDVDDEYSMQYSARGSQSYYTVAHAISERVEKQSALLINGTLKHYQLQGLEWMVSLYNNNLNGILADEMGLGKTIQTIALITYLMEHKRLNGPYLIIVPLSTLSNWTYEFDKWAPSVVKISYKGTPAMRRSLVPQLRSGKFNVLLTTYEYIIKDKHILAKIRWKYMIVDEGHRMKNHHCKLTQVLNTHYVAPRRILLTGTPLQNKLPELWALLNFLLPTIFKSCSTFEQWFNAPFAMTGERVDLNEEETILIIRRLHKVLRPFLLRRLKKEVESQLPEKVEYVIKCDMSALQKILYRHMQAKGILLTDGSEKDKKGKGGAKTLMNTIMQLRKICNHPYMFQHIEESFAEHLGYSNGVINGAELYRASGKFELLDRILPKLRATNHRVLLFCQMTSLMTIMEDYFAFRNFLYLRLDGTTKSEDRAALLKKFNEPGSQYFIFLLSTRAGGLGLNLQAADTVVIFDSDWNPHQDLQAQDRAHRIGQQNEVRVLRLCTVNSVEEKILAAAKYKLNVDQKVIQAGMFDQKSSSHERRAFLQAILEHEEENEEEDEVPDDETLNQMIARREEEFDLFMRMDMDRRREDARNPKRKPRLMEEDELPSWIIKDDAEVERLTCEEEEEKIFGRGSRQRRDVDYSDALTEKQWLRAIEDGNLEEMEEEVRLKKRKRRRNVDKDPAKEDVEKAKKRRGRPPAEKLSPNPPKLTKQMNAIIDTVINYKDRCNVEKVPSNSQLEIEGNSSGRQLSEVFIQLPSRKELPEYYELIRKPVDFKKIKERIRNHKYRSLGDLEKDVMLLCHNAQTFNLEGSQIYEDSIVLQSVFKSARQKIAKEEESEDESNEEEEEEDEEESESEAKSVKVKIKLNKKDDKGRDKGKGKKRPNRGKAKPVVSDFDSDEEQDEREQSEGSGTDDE

Row | SMILES | DC50 (SMARCA2-HiBiT) [µM] | Dmax (SMARCA2-HiBiT) [%] | DC50 (SMARCA4-HiBiT) [µM] | Dmax (SMARCA4-HiBiT) [%] | HeLa-HiBit-SM2 Dmax (%) (SMARCA2-HiBiT) | HeLa-HiBit-SM4 Dmax (%) (SMARCA4-HiBiT)
1 | O=C1CCC(N2Cc3cc(OCCN4CCC(N5CCN6c7cc(-c8ccccc8O)nnc7NC[C@H]6C5)C4)ccc3C2=O)C(=O)N1 (stereo partly drawn) [Example 256, 3-(5-(2-(3-((S)-2-(2-hydroxyphenyl)-5,6,6a,7,9,10-hexahydro-8H-pyrazino[1′,2′:4,5]pyrazino[2,3-c]pyridazin-8-yl)pyrrolidin-1-yl)ethoxy)-1-oxoisoindolin-2-yl)piperidine-2,6-dione] | 0.01 to 0.1 | 50 to 75 | 0.01 to 0.1 | 50 to 75 |  | 
2 | O=C1CCC(N2Cc3ccc(N4CCC(CN5C6CCC5CN(C(=O)N5CCN7c8cc(-c9ccccc9O)nnc8NC[C@H]7C5)C6)CC4)cc3C2=O)C(=O)N1 (stereo partly drawn) [Example 103, 3-(6-(4-((3-((S)-2-(2-hydroxyphenyl)-6,6a,7,8,9,10-hexahydro-5H-pyrazino[1′,2′:4,5]pyrazino[2,3-c]pyridazine-8-carbonyl)-3,8-diazabicyclo[3.2.1]octan-8-yl)methyl)piperidin-1-yl)-1-oxoisoindolin-2-yl)piperidine-2,6-dione] | < 0.01 | 75 to 85 | 0.01 to 0.1 | 75 to 85 |  | 
3 | O=C1CCC(N2C(=O)c3ccc(Nc4ccc(N5CCC(N6CCN7c8cc(-c9ccccc9O)nnc8NC[C@H]7C6)CC5)cc4)cc3C2=O)C(=O)N1 (stereo partly drawn) [Example 240, 2-(2,6-dioxopiperidin-3-yl)-5-((4-(4-((S)-2-(2-hydroxyphenyl)-5,6,6a,7,9,10-hexahydro-8H-pyrazino[1′,2′:4,5]pyrazino[2,3-c]pyridazin-8-yl)piperidin-1-yl)phenyl)amino) isoindoline-1,3-dione] | < 0.01 | 75 to 85 | < 0.01 | 75 to 85 |  | 
4 | O=C1CCC(N2C(=O)c3ccc(N4CCC(CN5CC6CC(C5)C6CN5CCN6c7cc(-c8ccccc8O)nnc7NC[C@H]6C5)CC4)cc3C2=O)C(=O)N1 (stereo partly drawn) [Example 39, 2-(2,6-dioxopiperidin-3-yl)-5-(4-((6-(((S)-2-(2-hydroxyphenyl)-5,6,6a,7,9,10-hexahydro-8H-pyrazino[1′,2′:4,5]pyrazino[2,3-c]pyridazin-8-yl)methyl)-3-azabicyclo[3.1.1]heptan-3-yl)methyl)piperidin-1-yl)isoindoline-1,3-dione] | < 0.01 | > 85 | < 0.01 | 50 to 75 |  | 
5 | O=C1CCC(N2C(=O)c3ccc(N4CC[C@H](CN5C[C@@H]6[C@H](C5)[C@H]6CN5CCN6c7cc(-c8ccccc8O)nnc7NC[C@H]6C5)[C@@H](F)C4)cc3C2=O)C(=O)N1 (stereo partly drawn) [Example 194, 2-(2,6-dioxopiperidin-3-yl)-5-[(3R,4R)-3-fluoro-4-[[(1S,5R)-6-[[(10S)-4-(2-hydroxyphenyl)-1,5,6,8,12-pentazatricyclo[8.4.0.02,7]tetradeca-2(7),3,5-trien-12-yl]methyl]-3-azabicyclo[3.1.0]hexan-3-yl]methyl]piperidin-1-yl]isoindole-1,3-dione] | < 0.01 |  | < 0.01 |  | A (A=Dmax>85%) | B (B=75%<Dmax<=85%)
6 | O=C1CCC(N2C(=O)c3ccc(N4CCC(CN5CCC(CN6CCN7c8cc(-c9ccccc9O)nnc8NC[C@H]7C6)CC5CO)CC4)cc3C2=O)C(=O)N1 (stereo partly drawn) [Example 236, 2-(2,6-dioxopiperidin-3-yl)-5-(4-((2-(hydroxymethyl)-4-(((S)-2-(2-hydroxyphenyl)-5,6,6a,7,9,10-hexahydro-8H-pyrazino[1′,2′:4,5]pyrazino[2,3-c]pyridazin-8-yl)methyl)piperidin-1-yl)methyl)piperidin-1-yl) isoindoline-1,3-dione] | < 0.01 | > 85 | < 0.01 | 75 to 85 |  | 
7 | O=C1CCC(N2C(=O)c3ccc(N4CC(CN5CCN(C(=O)N6CCN7c8cc(-c9ccccc9O)nnc8NC[C@H]7C6)CC5)C4)cc3C2=O)C(=O)N1 (stereo partly drawn) [Example 82, 2-(2,6-dioxopiperidin-3-yl)-5-(3-((4-((S)-2-(2-hydroxyphenyl)-6,6a,7,8,9,10-hexahydro-511-pyrazino[1′,2′:4,5]pyrazino[2,3-c]pyridazine-8-carbonyl)piperazin-1-yl)methyl)azetidin-1-yl) isoindoline-1,3-dione] | < 0.01 | 75 to 85 | < 0.01 | 50 to 75 |  | 

More lines, now with the values ahead:

Row | DC50 (SMARCA2-HiBiT) [µM] | Dmax (SMARCA2-HiBiT) [%] | DC50 (SMARCA4-HiBiT) [µM] | Dmax (SMARCA4-HiBiT) [%] | HeLa-HiBit-SM2 Dmax (%) (SMARCA2-HiBiT) | HeLa-HiBit-SM4 Dmax (%) (SMARCA4-HiBiT) | SMILES
8 | < 0.01 | 75 to 85 | < 0.01 | 50 to 75 |  |  | CC(CN1CCC(N2CCN3c4cc(-c5ccccc5O)nnc4NC[C@H]3C2)CC1)Oc1ccc2c(c1)CN([C@@H]1CCC(=O)NC1=O)C2=O (stereo partly drawn) [Example 214, (3R)-3-(5-((1-(4-((S)-2-(2-hydroxyphenyl)-5,6,6a,7,9,10-hexahydro-8H-pyrazino[1′,2′:4,5]pyrazino[2,3-c]pyridazin-8-yl)piperidin-1-yl)propan-2-yl)oxy)-1-oxoisoindolin-2-yl)piperidine-2,6-dione]
9 | < 0.01 | > 85 | < 0.01 | 75 to 85 |  |  | O=C1CCC(N2C(=O)c3ccc(N4CCCC(N5CCC(CN6CCN7c8cc(-c9ccccc9O)nnc8NC[C@H]7C6)CC5)C4)cc3C2=O)C(=O)N1 (stereo partly drawn) [Example 218, 2-(2,6-dioxopiperidin-3-yl)-5-(4-(((S)-2-(2-hydroxyphenyl)-5,6,6a,7,9,10-hexahydro-8H-pyrazino[1′,2′:4,5]pyrazino[2,3-c]pyridazin-8-yl)methyl)-[1,3′-bipiperidin]-1′-yl) isoindoline-1,3-dione]
10 | < 0.01 | > 85 | < 0.01 | 75 to 85 |  |  | O=C1CCC(NC(=O)c2ccc(N3CCC(CN4CCC(N5CCN6c7cc(-c8ccccc8O)nnc7NC[C@H]6C5)CC4)CC3)cn2)C(=O)N1 (stereo partly drawn) [Example 24, N-(2,6-dioxopiperidin-3-yl)-5-(4-((4-((S)-2-(2-hydroxyphenyl)-5,6,6a,7,9,10-hexahydro-8H-pyrazino[1′,2′:4,5]pyrazino[2,3-c]pyridazin-8-yl)piperidin-1-yl)methyl)piperidin-1-yl)picolinamide]
11 | < 0.01 |  | < 0.01 |  | A (A=Dmax>85%) | A (A=Dmax>85%) | O=C1CCC(N2C(=O)c3ccc(N4CC[C@@H](CN5C[C@@H]6[C@H](C5)[C@H]6CN5CCN6c7cc(-c8ccccc8O)nnc7NC[C@H]6C5)[C@H](F)C4)cc3C2=O)C(=O)N1 (stereo partly drawn) [Example 201, 2-(2,6-dioxopiperidin-3-yl)-5-[(3S,4S)-3-fluoro-4-[[(1S,5R)-6-[[(10S)-4-(2-hydroxyphenyl)-1,5,6,8,12-pentazatricyclo [8.4.0.02,7]tetradeca-2(7),3,5-trien-12-yl]methyl]-3-azabicyclo[3.1.0]hexan-3-yl]methyl]piperidin-1-yl]isoindole-1,3-dione]
12 | < 0.01 | > 85 | 0.01 to 0.1 | 75 to 85 |  |  | C[C@H]1CN2c3cc(-c4ccccc4O)nnc3NC[C@H]2CN1C(=O)N1CCN(CC2CCN(c3ccc4c(c3)C(=O)N(C3CCC(=O)NC3=O)C4)CC2)CC1 (stereo partly drawn) [Example 99, 3-(6-(4-((4-((6aS,9S)-2-(2-hydroxyphenyl)-9-methyl-6,6a,7,8,9,10-hexahydro-5H-pyrazino[1′,2′:4,5]pyrazino[2,3-c]pyridazine-8-carbonyl)piperazin-1-yl)methyl)piperidin-1-yl)-1-oxoisoindolin-2-yl)piperidine-2,6-dione]
13 | < 0.01 | > 85 | < 0.01 | > 85 |  |  | CC1(CN2CCN3c4cc(-c5ccccc5O)nnc4NC[C@H]3C2)CCN(CC2CCN(c3ccc4c(c3)C(=O)N(C3CCC(=O)NC3=O)C4=O)CC2)CC1 (stereo partly drawn) [Example 37, 2-(2,6-dioxopiperidin-3-yl)-5-(4-((4-(((S)-2-(2-hydroxyphenyl)-5,6,6a,7,9,10-hexahydro-8H-pyrazino[1′,2′:4,5]pyrazino[2,3-c]pyridazin-8-yl)methyl)-4-methylpiperidin-1-yl)methyl)piperidin-1-yl)isoindoline-1,3-dione]
14 | < 0.01 | > 85 | < 0.01 | > 85 |  |  | CC1(C)CN(c2ccc3c(c2)C(=O)N(C2CCC(=O)NC2=O)C3=O)CCC1CN1CCC(CN2CCN3c4cc(-c5ccccc5O)nnc4NC[C@H]3C2)CC1 (stereo partly drawn) [Example 88, 2-(2,6-dioxopiperidin-3-yl)-5-(4-((4-(((S)-2-(2-hydroxyphenyl)-5,6,6a,7,9,10-hexahydro-8H-pyrazino[1′,2′:4,5]pyrazino[2,3-c]pyridazin-8-yl)methyl)piperidin-1-yl)methyl)-3,3-dimethylpiperidin-1-yl)isoindoline-1,3-dione]
15 | < 0.01 | > 85 | < 0.01 | > 85 |  |  | O=C1CCC(N2Cc3cc(N4CCN(CC5CCN(CCN6CCN7c8cc(-c9ccccc9O)nnc8NC[C@H]7C6)CC5)CC4)ccc3C2=O)C(=O)N1 (stereo partly drawn) [Example 217, 3-(5-(4-((1-(2-((S)-2-(2-hydroxyphenyl)-5,6,6a,7,9,10-hexahydro-8H-pyrazino [1′,2′:4,5]pyrazino[2,3-c]pyridazin-8-yl)ethyl)piperidin-4-yl)methyl)piperazin-1-yl)-1-oxoisoindolin-2-yl)piperidine-2,6-dione]
16 | < 0.01 | 50 to 75 | < 0.01 | 50 to 75 |  |  | C[C@@H]1CN(CC2CCN(c3ccc4c(c3)C(=O)N(C3CCC(=O)NC3=O)C4=O)CC2)CCN1C(=O)N1CCN2c3cc(-c4ccccc4O)nnc3NC[C@H]2C1 (stereo partly drawn) [Example 115, 2-(2,6-dioxopiperidin-3-yl)-5-(4-(((R)-4-((S)-2-(2-hydroxyphenyl)-6,6a,7,8,9,10-hexahydro-5H-pyrazino[1′,2′:4,5]pyrazino[2,3-c]pyridazine-8-carbonyl)-3-methyl-piperazin-1-yl)methyl)piperidin-1-yl)isoindoline-1,3-dione]
